Data set [1] concerns pigs. The method, then: At 9 weeks of age, 48 pigs (24 gilts and 24 chirurgical castrated barrows) were divided randomly into groups of four pigs of the same gender. Each group was housed in a separate pen resulting in six pens of four gilts and six pens of four barrows. All pigs were fed the same commercial diet and for three of the six pens of gilts and three of the six pens of barrows their diet was supplemented with 500 mg β-alanine per kg (=568 mg or 6.4 mmol β-alanine per kg dry weight). Water was freely available and the animals were fed ad libitum. After 6 weeks (age of 15 weeks) all animals were euthanized by natrium-pentobarbital.

The test system of data set [2] is Japanese flounders. Particulars: 8.9 g/kg of β-alanine in diet; cited from earlier work.
Data set [3] has as its system chickens. Particulars: 22 mmol/kg bodyweight orally twice a day for five days; cited from earlier work.
Data set [4] has as its system broiler chickens. The settings on record: cited from earlier work.
Data set [5] concerns pigs. Particulars: cited from earlier work.
The subject of data set [6] is Ross 308 chickens. The method, then: A group of 252 Ross 308 chickens were randomly distributed over 14 pens with 18 animals each. All chickens were previously housed in identical conditions, and fed the same diet as the control group in the trial. Every other pen was attributed to either a control diet or that control diet supplemented with 500 mg β-alanine per kg (=595 mg or 6.7 mmol β-alanine per kg dry weight). Water was freely available from drinking cups, and animals were fed ad libitum. The control diet was a commercial broiler diet (Vanden Avenne, Braadkip 114 MB) with 4% corn oil added to increase the level of oxidative stress, as used in earlier studies (Kalmar et al., 2011).
From the age of 24 days to the age of 48 days, the change in bodyweight was measured per bird, but pooled per pen as the experimental unit. At 42 days of age, one male bird per pen was euthanized by intravenous injection of sodium pentobarbital. From the breast and thigh muscle, a sample was dissected and stored airtight at −20° C. until analysis. The breast muscle sample was taken at about one third from the distal end of the breast.

Data set [7] relates to carps. As to the method: A group of 24 carps were distributed over 12 aquaria with 2 fish each. All fish were previously housed in identical conditions, and fed the same diet as the control group in the trial. Every other aquarium was attributed to either a control diet or that control diet supplemented with 500 mg β-alanine per kg. Feeding was done at 1.5% of the body weight, during 2 feeding times/day. To increase the level of oxidative stress, the carps were kept at 27° C. (4° C. above the advised temperature).
The change in bodyweight after the 14 day feeding experiment was measured per fish, but pooled per aquarium as the experimental unit.

For data set [8], the system named is broiler chickens. The settings on record: 0.5% of carnosine in broiler feed; cited from earlier work.
Setting [9] is: 0.5% of β-alanine in feed for 4 weeks.
The mark [10] stands for this setting: 1 and 2% of β-alanine in feed for 4 weeks.
[11] abbreviates: 0.225% of β-alanine in pig diet.
Where [12] appears, read: β-alanine in combination with histidine.
Setting [13] is: 500 mg/kg beta-alanine in diet, between 24 and 42 days of age.
The mark [14] stands for this setting: 500 mg/kg beta-alanine in diet, 14 days.
The mark [15] stands for this setting: 500 mg/kg beta-alanine in diet, 14 days, 27° C.

Where two headings read alike, the source gives them in different places.

Here are results for two compounds from patent publication US20150126603A1, “TREATMENT OF POULTRY, PIGS OR FISH FOR REDUCING THE FEED CONVERSION RATIO OR INCREASING THEIR BODYWEIGHT GAIN” (TAMINCO, priority 2012, published 2015).

Take `NCCC(=O)O` [Beta-alanine, β-alanine]: the “Bodyweight gain over 6 weeks” value in data set [1] (500 mg/kg beta-alanine in diet, 9 to 15 weeks of age) was 25.4. The Final bodyweight in data set [1] (500 mg/kg beta-alanine in diet, 15 weeks of age) turned out to be 44.1 kg; in data set [6] (setting [13]) it was 2.874 kg; in data set [7] (setting [15]), 230.1 g. Further, the “bodyweight at slaughter vs control” value in data set [1] (500 mg/kg β-alanine in diet) is listed as “tend to have a higher bodyweight at slaughter”; in data set [6] (500 mg/kg β-alanine in diet) it was “tended to have a higher bodyweight at slaughter”. Also, the “bodyweight gain vs control” value in data set [1] (500 mg/kg β-alanine in diet) and in data set [6] (500 mg/kg β-alanine in diet) was “tended to have a higher bodyweight gain” throughout. Also, the “overall growth of the piglets” value in data set [1] (500 mg/kg β-alanine in diet) is listed as “increases the overall growth”. For the same compound, the “death or illness during the trial” value in data set [1] (500 mg/kg β-alanine in diet, 6 weeks) is given as “No animals died or became ill”. Further, the Initial bodyweight in data set [1] (baseline at 9 weeks of age, 500 mg/kg group) came to 18.7 kg; in data set [6] (baseline at 24 days of age, 500 mg/kg group), 1.362 kg; in data set [7] (baseline, 500 mg/kg group) it was 211.1 g. The bodyweight gain result in data set [2] was “increased somewhat but not significantly”; in data set [3], “also decreased”; in data set [4] (setting [9]), “no significant changes”; in data set [4] (setting [10]), “decreased significantly”; in data set [5] (setting [11]), “decreased somewhat”; in data set [5] (setting [12]), “decreased even more”. The feed conversion ratio result in data set [2] is given as “increased significantly”; in data set [3] it was “decreased”; in data set [4] (setting [9]) it was “no significant changes”; in data set [4] (setting [10]), “increased”; in data set [5] (setting [11]), “decreased somewhat”; in data set [5] (setting [12]), “increased to become higher than the control”. Also, in data set [7] (setting [14]), the feed conversion ratio is given as 2.7 g:g. Moreover, the feed consumption entry in data set [3] is listed as “also decreased”. Besides, the Average daily gain in data set [6] (setting [13]) was determined as 108 g. In addition, the Average feed intake in data set [7] (setting [14]) is 44.1 g. Further, the Average weight gain in data set [7] (setting [15]) is 19.0 g.

As to `NCCC(=O)N[C@@H](Cc1c[nH]cn1)C(=O)O` [carnosine, β-alanyl-L-histidine], in data set [8], the “chicken meat quantity and quality” value is reported as “improve”; the feed conversion ratio entry is recorded as “improved but not statistically significantly”; the weight gain entry was “improved but not statistically significantly”.
